Test results as given in patent publication US9359345B2, “Thiazole derivatives as inhibitors of Bruton's tyrosine kinase” (Hoffmann-La Roche Inc., priority 2012, dated 2016).

Molecular target: Bruton's Tyrosine Kinase (BTK), inactivated state (Homo sapiens (Human), UniProt Q06187)
Experiment: Bruton's Tyrosine Kinase (BTK) Inhibition TR-FRET (Time Resolved FRET) competition assay
Format: binding
Conditions: Kinase Tracer 178, BTK-Eu, 18-24 h at 14° C.
Protocol: Bruton's Tyrosine Kinase (BTK) Inhibition TR-FRET (Time Resolved FRET) Assay
This BTK competition assay measures compound potency (IC50) for the inactivated state of Bruton's Tyrosine Kinase using FRET (Forster/Fluorescence Resonance Energy Transfer) technology. The BTK-Eu complex was incubated on ice one hour prior to use at a starting concentration of 50 nM BTK-Bioease™: 10 nM Eu-streptavidin (Perkin-Elmer Catalog# AD0062). The assay buffer consisted of 20 mM HEPES (pH 7.15), 0.1 mM DTT, 10 mM MgCl2, 0.5 mg/ml BSA with 3% Kinase Stabilizer (Fremont Biosolutions, Catalog # STB-K02). After 1 h, the reaction mixture from above was diluted 10 fold in assay buffer to make 5 nM BTK: 1 nM Eu-Streptavidin complex (donor fluorophore). 18 μl of a mixture of 0.11 nM BTK-Eu and 0.11 nM Kinase Tracer 178 (Invitrogen, Catalog # PV5593,) with BTK-Eu alone as no negative control, was then dispensed into 384-well flat bottom plates (Greiner, 784076). Compounds to be tested in assay were prepared as 10× concentrations and serial dilution in half-log increments was performed in DMSO so as to generate 10 point curves. To initiate the FRET reaction, compounds prepared as 10× stock in DMSO was added to the plates and the plates were incubated 18-24 h at 14° C.
After the incubation the plates were read on a BMG Pherastar Fluorescent plate reader (or equivalent) and used to measure the emission energy from the europium donor fluorophore (620 nm emission) and the FRET (665 nm emission). The negative control well values were averaged to obtain the mean minimum. The positive “no inhibitor” control wells were averaged to obtain the mean maximum. Percent of maximal FRET was calculated using following equation: % max FRET=100×[(FSRcmpd−FSRmean min)/(FSRmean max−FSRmean min)] where FSR=FRET Signal ratio. % Max FRET curves were plotted in Activity Base (Excel) and the IC50(%), hill slope, z′ and % CV were determined. The mean IC50 and standard deviation will be derived from duplicate curves (singlet inhibition curves from two independent dilutions) using Microsoft Excel.

Bruton's Tyrosine Kinase (BTK), inactivated state, sequence (Q06187 whole entry): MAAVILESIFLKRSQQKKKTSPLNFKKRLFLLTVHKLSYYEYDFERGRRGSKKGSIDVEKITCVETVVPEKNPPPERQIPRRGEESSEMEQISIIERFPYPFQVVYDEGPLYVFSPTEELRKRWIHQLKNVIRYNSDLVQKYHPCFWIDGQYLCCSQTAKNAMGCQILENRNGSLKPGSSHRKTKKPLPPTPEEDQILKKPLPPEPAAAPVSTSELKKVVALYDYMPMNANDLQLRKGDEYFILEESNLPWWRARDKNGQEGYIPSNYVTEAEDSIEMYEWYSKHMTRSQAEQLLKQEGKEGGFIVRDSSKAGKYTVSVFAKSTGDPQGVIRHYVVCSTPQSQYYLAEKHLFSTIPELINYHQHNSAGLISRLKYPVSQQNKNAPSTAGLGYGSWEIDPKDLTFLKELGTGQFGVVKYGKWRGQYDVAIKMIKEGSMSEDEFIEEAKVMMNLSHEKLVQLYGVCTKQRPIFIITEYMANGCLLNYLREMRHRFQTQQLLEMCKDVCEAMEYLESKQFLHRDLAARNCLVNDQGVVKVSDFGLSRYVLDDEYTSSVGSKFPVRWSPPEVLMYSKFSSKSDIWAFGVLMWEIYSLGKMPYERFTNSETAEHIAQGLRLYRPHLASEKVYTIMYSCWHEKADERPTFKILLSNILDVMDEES

Structure (SMILES) | IC50
CC(C)(C)OC(=O)N[C@@H]1CCCN(c2nc(C(N)=O)c(Nc3ccccn3)s2)C1 [Compound 3, {(R)-1-[4-Carbamoyl-5-(pyridin-2-ylamino)-thiazol-2-yl]-piperidin-3-yl}-carbamic acid tert-butyl ester] | 1.21 µM
CC(C)(C)c1ccc(C(=O)N[C@@H]2CCCN(c3nc(C(N)=O)c(Nc4ccccn4)s3)C2)cc1 [Compound 7, 2-[(R)-3-(4-tert-Butyl-benzoylamino)-piperidin-1-yl]-5-(pyridin-2-ylamino)-thiazole-4-carboxylic acid amide] | 0.47 µM
CC(C)(C)c1ccc(C(=O)N[C@@H]2CCCN(c3nc(C(N)=O)c(Nc4ccccn4)s3)C2)cn1 [Compound 4, 6-tert-Butyl-N-{(R)-1-[4-carbamoyl-5-(pyridin-2-ylamino)-thiazol-2-yl]-piperidin-3-yl}-nicotinamide] | 1.73 µM
NC(=O)c1nc(N2CCC[C@@H](NC(=O)Cc3ccccc3)C2)sc1Nc1ccccn1 [Compound 5, 2-((R)-3-Phenylacetylamino-piperidin-1-yl)-5-(pyridin-2-ylamino)-thiazole-4-carboxylic acid amide] | 6.24 µM
Cc1cccc(CC(=O)N[C@@H]2CCCN(c3nc(C(N)=O)c(Nc4ccccn4)s3)C2)c1 [Compound 6, 5-(Pyridin-2-ylamino)-2-[(R)-3-(2-m-tolyl-acetylamino)-piperidin-1-yl]-thiazole-4-carboxylic acid amide] | 7.51 µM
NC(=O)c1nc(N2CCC[C@@H](NC(=O)N3Cc4ccc(Cl)cc4C3)C2)sc1Nc1ccccn1 [Compound 2, 5-Chloro-1,3-dihydro-isoindole-2-carboxylic acid {(R)-1-[4-carbamoyl-5-(pyridin-2-ylamino)-thiazol-2-yl]-piperidin-3-yl}-amide] | 7.74 µM

Further lines, results first:

IC50 | Structure (SMILES)
5.07 µM | CS(=O)(=O)N[C@@H]1CCCN(c2nc(C(N)=O)c(Nc3ccccn3)s2)C1 [Compound 8, 2-((R)-3-Methanesulfonylamino-piperidin-1-yl)-5-(pyridin-2-ylamino)-thiazole-4-carboxylic acid amide]
6.03 µM | CC(=O)N[C@@H]1CCCN(c2nc(C(N)=O)c(Nc3ccccn3)s2)C1 [Compound 12, 2-((R)-3-Acetylamino-piperidin-1-yl)-5-(pyridin-2-ylamino)-thiazole-4-carboxylic acid amide]
5.8 µM | CC(C)S(=O)(=O)N[C@@H]1CCCN(c2nc(C(N)=O)c(Nc3ccccn3)s2)C1 [Compound 10, 2-[(R)-3-(Propane-2-sulfonylamino)-piperidin-1-yl]-5-(pyridin-2-ylamino)-thiazole-4-carboxylic acid amide]
1.61 µM | NC(=O)c1nc(N2CCC[C@@H](NS(=O)(=O)c3ccccc3)C2)sc1Nc1ccccn1 [Compound 9, 2-((R)-3-Benzenesulfonylamino-piperidin-1-yl)-5-(pyridin-2-ylamino)-thiazole-4-carboxylic acid amide]
